Tests used:
[1] = biological target: T1, LGC-50 S335A, T348A, S353A (Caenorhabditis elegans, UniProt P41849, S335A/S353A/T348A); test: Two-electrode voltage clamp, 5-HT evoked dose response, LGC-50 phospho-dead mutant; assay type: cell-based, C. elegans
T1 construct: Plasmid: KSM: lgc-50 (cDNA, S335A, T348A, S353A); expressed in transfected cells; host or cells: Xenopus laevis oocytes injected with cRNA (plasmid pIH128)
Source text: In addition to this region, we also investigated three upstream predicted phosphorylation sites. Phosphorylation of the M3/4 loop has previously been implicated in the trafficking and cell surface recycling of GABAA receptors.[23]^,[24] The first site in the M3/4 loop of LGC-50, S335, is predicted to be a cdc2 site, and T348 and S353 are predicted protein kinase C (PKC) or PKA sites (Table S2).[25]^,[26] We introduced both phosphorylation-dead alanine mutations and phosphomimic aspartate mutations into these sites to assess their effect on receptor trafficking. […]
(§1) Two-electrode voltage clamp recordings were carried out using the Robocyte2 recording system or a manual TEVC set up, using an OC-725D amplifier (Multi Channel Systems, Reutlingen, Germany) and paired with a custom-made recording chamber and agar bridges from reference and bath electrodes. […] Data was recorded using WinWCP or RoboCyte2 control software, manual data was filtered at 10 Hz.
(§2) Dose response curves were calculated from the peak current during a 10 s agonist stimulation in ND96 solution, with a 60 s ND96 wash in between doses. […] Normalized dose response data was fitted to a nonlinear curve using a four parameters variable slope and the EC50 and Hill slope was calculated. […] Kinetic measurements were calculated from a 60 s agonist perfusion. […]

LGC-50 Δ363-379 = biological target: T2, LGC-50 Δ363-379 (Caenorhabditis elegans, UniProt P41849, DEL363-379); test: Two-electrode voltage clamp, 5-HT evoked dose response, LGC-50 deletion mutant Δ363-379; assay type: cell-based, C. elegans
T2 construct: Plasmid: KSM: lgc-50 (cDNA, Δ363-379); expressed in transfected cells; host or cells: Xenopus laevis oocytes injected with cRNA (plasmid pIH142)
Description: To identify such domains, we tested the effects of deletion mutations in the LGC-50 M3/4 loop (Figure 5A).
Defolliculated Xenopus laevis oocytes were obtained from EcoCyte Bioscience (Dortmund, Germany) and maintained in ND96 (in mM: 96 NaCl, 1 MgCl2, 5 HEPES, 1.8 CaCl2, 2 KCl) solution at 16°C for 3-5 days.
5'-capped cRNA was synthesized in vitro using the T3 mMessage mMachine transcription kit according to manufacturer’s protocol (Thermo Fischer Scientific, CA, USA). RNA was then purified using the GeneJET RNA purification kit (Thermo Fischer Scientific, CA, USA) prior to cRNA injection. […]
as §1, §2

T2 sequence (P41849 other isoform, or with tags, fused parts or gaps DEL363-379): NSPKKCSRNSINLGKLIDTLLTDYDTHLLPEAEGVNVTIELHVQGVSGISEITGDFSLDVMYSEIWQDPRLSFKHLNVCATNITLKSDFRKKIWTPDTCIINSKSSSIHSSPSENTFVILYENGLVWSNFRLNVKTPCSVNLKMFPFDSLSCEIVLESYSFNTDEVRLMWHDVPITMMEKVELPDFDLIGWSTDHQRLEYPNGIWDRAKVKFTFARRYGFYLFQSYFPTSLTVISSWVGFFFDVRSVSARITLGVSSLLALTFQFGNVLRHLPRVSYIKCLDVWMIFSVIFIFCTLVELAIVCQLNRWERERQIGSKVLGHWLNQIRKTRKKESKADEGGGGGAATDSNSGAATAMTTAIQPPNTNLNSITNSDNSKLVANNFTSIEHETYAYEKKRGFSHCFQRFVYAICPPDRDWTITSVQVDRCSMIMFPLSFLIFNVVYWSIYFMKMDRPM
T1 sequence (P41849 20-491 S335A/T348A/S353A): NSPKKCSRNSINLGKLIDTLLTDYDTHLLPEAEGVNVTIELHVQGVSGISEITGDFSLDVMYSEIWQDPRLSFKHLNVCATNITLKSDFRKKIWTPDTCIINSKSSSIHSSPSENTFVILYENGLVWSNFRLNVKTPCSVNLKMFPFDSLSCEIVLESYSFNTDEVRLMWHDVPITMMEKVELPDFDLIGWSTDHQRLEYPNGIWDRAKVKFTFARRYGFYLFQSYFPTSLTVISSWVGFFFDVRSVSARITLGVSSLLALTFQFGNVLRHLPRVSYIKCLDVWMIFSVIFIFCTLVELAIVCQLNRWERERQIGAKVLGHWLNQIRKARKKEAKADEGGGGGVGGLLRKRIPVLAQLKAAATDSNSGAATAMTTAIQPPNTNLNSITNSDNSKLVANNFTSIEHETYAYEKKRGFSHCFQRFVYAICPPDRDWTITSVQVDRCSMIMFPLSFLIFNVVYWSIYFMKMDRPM

NCCc1c[nH]c2ccc(O)cc12 [5-HT, serotonin]
EC50 [1]: 570 nM | EC50 (LGC-50 Δ363-379): 930 nM
